Measured values as given in patent publication US5051417A, “Indolythiadiazines for treating heart failure” (Les Laboratoires Beecham S.A., priority 1988, dated 1991).

Columns and labels:
[1] = test system: canine cardiac myofibrillar Ca++-dependent Mg++-ATPase; assay: Measurement of myofibrillar Ca++-dependent Mg++-ATPase activity on canine cardiac myofibrils; format: biochemical; settings: pH 7.0, 21° C.; for max (percent change of maximal ATPase activity): pCa=5.47
Procedure: 1. Measurement of myofibrillar Ca++-dependent Mq++-ATPase activity The effect on myofibrillar Ca++sensitivity and on maximal activity of myofibrillar Ca++-dependent Mg++-ATPase was determined on canine cardiac myofibrils. (a) Contractile protein preparation Cardiac myofibrils free of membrane contaminants were prepared from left ventricular tissue of dog hearts using a modification of the method described by SOLARO et al, Biochem. Biophys. Acta, 245, 259-262, (1971). Before centrifugation, the heart homogenate was filtered through gauze. After Triton X-100 treatments, the myofibrillar fraction was washed once by resuspension and centrifugation in 10 volumes of 1 mM EGTA, […], 30 mM imidazole, 2 mM MgCl2, pH 7.0. The pellet was then washed three times in 10 volumes of the same buffer without EGTA. Before the last centrifugation, the suspension of myofibrils was filtered through a stainless steel sieve with 0.25 mm meshes. Myofibrils were kept in pellet overnight. Before use, the pellet was suspended in a small amount of buffer, the protein concentration was determined by the method of BRADFORD M., Anal. Biochem., 1976, 72, 248 and adjusted in order to have a concentration between 6 and 7 mg/ml. (b) Myofibrillar ATPase activity Ca++-dependent myfibrillar ATPase activity was determined at 21° C., pH 7.0, by measuring the rate of release of inorganic phosphate. All assays were performed within 24hrs. of final purification, using the method described by SOLARO and […]., 51. 290-4,(1982). Reaction mixtures (4 ml) containing 0.6-0.7 mg/ml myofibrillar protein, 80mM KCl, 20 mM imidazole, 3 mM MgCl2, 1 mM EGTA, the desired amount of CaCl2, and the indicated concentration of drug or appropriate vehicle were preincubated for 6 min. prior to assay. The amount of CaCl2 was varied between 0 and 0.9 mM and the pCa (-log free Ca++) computed using 2.514×10^6 M^-1 as the apparent affinity of Ca++for EGTA at pH 7.0. Reactions were initiated by the addition of Na2 ATP to final concentration of 2 mM. After an incubation period of 12 min., reactions were quenched by the addition of an equal volume of ice-cold 10% trichloroacetic acid. The protein was pelleted by centrifugation (2000 g, 15 min.) and Pi was assayed in the supernatant fraction using a modification of the method described by LANZETTA et al, Anal. Biochem., 100, 95-97, (1979). The following solutions were prepared: (1) 3.7% ammonium heptamolybdate in 0.12 N H2 SO4 (2) 0.074% malachite green oxalate in 1% polyvinylic alcohol. The colour reagent was prepared by mixing an equal volume of solution (1) and (2) 15 min. before the assay. For the assay, 1,700 μl of 1% H2 SO4 and 1 ml of colour reagent were added to 100 μl of sample. Colour development occurred at room temperature for 30 min. and was quenched by the addition of 200 μl of 1M tri-potassium citrate. The absorbance was measured at 620 millimicrons. The effect of each compound, tested at the indicated concentration, on the relation between pCa and percent activation was determined taking 100% for the maximum ATPase activity obrained with vehicle alone. The effect on Ca++sensitivity was quantified by measuring the shift of the pCa giving 50% of the maximal control ATPase activity. The effect on maximal ATPase activity was expressed as the percent change of ATPase activity for pCa=5.47. Mean effects on myofibrillar ATPase activity were obtained from 1 to 5 preparations, (compounds tested at 2×10^-4 M).

[2] = target: T1, canine cardiac PDE, CGI (Canis lupus familiaris, UniProt A0A8I3NYE0); assay: Canine cardiac PDE inhibition, CGI; format: biochemical; settings: n in table
T1 construct: CANINE CARDIAC PDE; from tissue; host or cells: dog heart
T1 sequence (A0A8I3NYE0 1-1135): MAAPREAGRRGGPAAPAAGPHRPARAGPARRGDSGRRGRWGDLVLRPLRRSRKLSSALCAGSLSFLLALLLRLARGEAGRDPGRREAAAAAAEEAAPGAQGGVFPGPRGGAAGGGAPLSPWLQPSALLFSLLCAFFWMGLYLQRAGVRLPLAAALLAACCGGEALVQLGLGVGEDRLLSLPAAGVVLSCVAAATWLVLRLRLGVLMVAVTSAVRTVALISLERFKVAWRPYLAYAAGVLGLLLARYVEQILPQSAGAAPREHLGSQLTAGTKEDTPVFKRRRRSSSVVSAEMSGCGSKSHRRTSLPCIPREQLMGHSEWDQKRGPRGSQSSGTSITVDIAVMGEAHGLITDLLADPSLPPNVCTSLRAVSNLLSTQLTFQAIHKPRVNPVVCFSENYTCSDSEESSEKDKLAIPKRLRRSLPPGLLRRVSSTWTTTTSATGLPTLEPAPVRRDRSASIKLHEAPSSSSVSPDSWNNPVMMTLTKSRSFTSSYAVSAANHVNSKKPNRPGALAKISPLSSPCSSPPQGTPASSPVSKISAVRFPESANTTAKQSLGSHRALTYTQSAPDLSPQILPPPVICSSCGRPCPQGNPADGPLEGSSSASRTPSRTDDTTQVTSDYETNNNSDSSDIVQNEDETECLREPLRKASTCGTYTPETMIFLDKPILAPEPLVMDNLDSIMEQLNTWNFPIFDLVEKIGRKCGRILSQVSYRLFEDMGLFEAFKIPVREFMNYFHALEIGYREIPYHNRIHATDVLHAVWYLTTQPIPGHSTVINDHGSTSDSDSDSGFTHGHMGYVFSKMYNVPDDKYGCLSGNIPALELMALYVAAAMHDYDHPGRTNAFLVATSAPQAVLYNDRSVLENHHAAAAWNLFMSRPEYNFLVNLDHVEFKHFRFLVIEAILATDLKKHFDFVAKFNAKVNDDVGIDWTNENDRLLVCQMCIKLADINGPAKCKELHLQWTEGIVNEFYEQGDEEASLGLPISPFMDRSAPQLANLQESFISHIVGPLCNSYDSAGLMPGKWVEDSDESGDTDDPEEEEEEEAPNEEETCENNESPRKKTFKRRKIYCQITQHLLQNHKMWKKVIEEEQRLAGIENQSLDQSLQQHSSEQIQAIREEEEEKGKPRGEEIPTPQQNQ

[3] = test system: anaesthetised dog; assay: Cardiotonic activity in the dog (haemodynamics); format: in vivo, dog (male Beagle); settings: i.v.
[4] = test system: canine cardiac PDE, CAM; assay: Canine cardiac PDE inhibition, CAM; format: biochemical; settings: n in table
[5] = Stability in presence of air; format: physicochemical; settings: free base
Procedure: However, the compounds can usually be stabilised by converting them to a salt form.
1 g (2.8mmol) 1,3-Dihydro-5-(3,6-dihydro-6-methyl-2-oxo-2H -1,3,4-thiadiazin-5-yl)-3-phenylimino-2H-indol-2-one (E6) and 1.87 g (28mmol) powdered zinc in 20 ml glacial acetic acid were refluxed for 10 minutes. The excess of zinc was removed by filtration and washed with acetic acid. 100 ml water were added to the filtrate and the precipitate was filtered, washed with water until neutral, and dried under vacuum. […] The crystals of the free base were suspended in a 1/5 mixture of methanol/ethyl ether (30 ml) and about 5 ml of a saturated solution of HCl gas in ethyl ether were added. After 1 hour of stirring, the white precipitate was filtered off, washed with ether and dried.

| Structure (SMILES) | max (percent change of maximal ATPase activity) ([1]; 10 μM) | pCa (shift of the pCa giving 50% of the maximal control ATPase activity; Ca++ sensitivity) ([1]; 10 μM) | max (percent change of maximal ATPase activity) ([1]; 30 μM) | pCa (shift of the pCa giving 50% of the maximal control ATPase activity; Ca++ sensitivity) ([1]; 30 μM) | IC50 [2] [nM] | IC50 [4] [nM] | AoBF ([3]; 0.1 mg/kg) | AoBP ([3]; 0.1 mg/kg) | H.R. ([3]; 0.1 mg/kg) | dP/dt Max ([3]; 0.1 mg/kg) | AoBF ([3]; 0.3 mg/kg) | AoBP ([3]; 0.3 mg/kg) [%] | H.R. ([3]; 0.3 mg/kg) | dP/dt Max ([3]; 0.3 mg/kg) | AoBF ([3]; 1.0 mg/kg) | AoBP ([3]; 1.0 mg/kg) [%] | H.R. ([3]; 1.0 mg/kg) | dP/dt Max ([3]; 1.0 mg/kg) | also measured |
| --- | --- | --- | --- | --- | --- | --- | --- | --- | --- | --- | --- | --- | --- | --- | --- | --- | --- | --- | --- |
| CON=C1C(=O)Nc2ccc(C3=NNC(=O)SC3C)cc21 (stereo not shown) [Example 2, 1,3-Dihydro-5-(3,6-dihydro-6-methyl-2-oxo-2H,1,3,4 thiadiazin-5-yl)-3-methoxyimino-2H-indol-2-one] | +5 ± 2% | 0.24 ± 0.01 | +13 ± 4% | 0.60 ± 0.11 | 1300 | 6900 | +8 ± 2% | +4 ± 2% | +13 ± 8% | +31 ± 9% | +16 ± 1% | -9 ± 1 | +26 ± 10% | +54 ± 20% | +33 ± 5% | -20 ± 5 | +55 ± 21% | +128 ± 56% |  |
| CC1SC(=O)NN=C1c1ccc2c(c1)C(Nc1ccccc1)C(=O)N2.Cl (stereo not shown) [Example 8, 1,3-Dihydro-5-(3,6-dihydro-6-methyl-2-oxo-2H-1,3,4-thiadiazin-5-yl)-3-phenylamino-2H-indol-2-one, hydrochloride] |  |  | 2 ± 3% | +0.87 ± 0.01 | 1200 | 19000 |  |  |  |  |  |  |  |  |  |  |  |  | stability in presence of air [5]: reverts to the starting material in presence of air |

The next molecules have a lower IC50 [2] than those just listed; values first:

| max (percent change of maximal ATPase activity) ([1]; 10 μM) | pCa (shift of the pCa giving 50% of the maximal control ATPase activity; Ca++ sensitivity) ([1]; 10 μM) | max (percent change of maximal ATPase activity) ([1]; 30 μM) | pCa (shift of the pCa giving 50% of the maximal control ATPase activity; Ca++ sensitivity) ([1]; 30 μM) | IC50 [2] [nM] | IC50 [4] [nM] | Structure (SMILES) | AoBF ([3]; 0.1 mg/kg) | AoBP ([3]; 0.1 mg/kg) | H.R. ([3]; 0.1 mg/kg) | dP/dt Max ([3]; 0.1 mg/kg) | AoBF ([3]; 0.3 mg/kg) | AoBP ([3]; 0.3 mg/kg) [%] | H.R. ([3]; 0.3 mg/kg) | dP/dt Max ([3]; 0.3 mg/kg) | AoBF ([3]; 1.0 mg/kg) | AoBP ([3]; 1.0 mg/kg) [%] | H.R. ([3]; 1.0 mg/kg) | dP/dt Max ([3]; 1.0 mg/kg) | also measured |
| --- | --- | --- | --- | --- | --- | --- | --- | --- | --- | --- | --- | --- | --- | --- | --- | --- | --- | --- | --- |
| +5 ± 0% | 0.19 ± 0.09 | +1 ± 2% | 0.25 ± 0.07 | 660 | 7900 | CC1SC(=O)NN=C1c1ccc2c(c1)C(=NO)C(=O)N2 (stereo not shown) [Example 1, 1,3-Dihydro-5-(3,6-dihydro-6-methyl-2-oxo-2H-1,3,4-thiadiazin-5-yl)-3-hydroxyimino-2H-indol-2-one] | +8% | +4% | +13% | +31% | +16% | -9 | +30% | +54% | +33% | -20 | +55% | 128% |  |
|  |  | -16 ± 3% | +0.60 ± 0.07 | 430 | 23000 | CC1SC(=O)NN=C1c1ccc2c(c1)C(=Cc1ccccc1O)C(=O)N2 (stereo not shown) [Example 17, 1,3-Dihydro-5-(3,6-dihydro-6-methyl-2-oxo-2H-1,3,4-thiadiazin-5-yl)-3-[(2-hydroxyphenyl)methylene]-2H -indol-2-one] |  |  |  |  | +14 ± 2% | -8 ± 2 | +9 ± 3% | +6 ± 2% | +16 ± 1% | -7 ± 1 | +22 ± 5% | +35 ± 8% | AoBF ([3]; 3.0 mg/kg): +18 ± 4%; AoBP ([3]; 3.0 mg/kg): -20 ± 7%; H.R. ([3]; 3.0 mg/kg): +52 ± 13%; dP/dt Max ([3]; 3.0 mg/kg): +81 ± 18% |
|  |  | +3 ± 3% | +0.33 ± 0.05 | 270 | > 300000 | COC(=S)NN=C1C(=O)Nc2ccc(C3=NNC(=O)SC3C)cc21 (stereo not shown) [Example 3, O-Methyl 2-[2,3-dihydro-5-(3,6-dihydro-6-methyl-2-oxo-2H -1,3,4-thiadiazin-5-yl)-2-oxo-1H-indol-3-ylidene]-hydrazine carbothioate] | -30 ± 12% | -14 ± 7% | +28 ± 6% | +17 ± 6% | -63 ± 8% | -29 ± 6 | +54 ± 11% | +70 ± 5% | -50 ± 12% | -30 ± 1 | +93 ± 7% | +126 ± 9% |  |
